Experiments:
rat MT-I cRNA = assay: cell-free ribozyme cleavage of labeled rat MT-I cRNA; assay type: biochemical; details: for cleavage activity on rat MT-I cRNA: cell-free, excess unlabeled ribozyme, 37° C., 16 hours
Source text: (§1) Bluescript plasmids containing the rat MT cDNA (pBSMT-I and pBSMT-2) were constructed as described above. A plasmid containing the mouse MT-I (pSP-MT-I) and a second plasmid (SDF 102.C1) containing MT-II cDNA (Durnam et al., 1980, Proc. Natl. Acad. Sci. USA 77:6511-6515) were linearized with HindIII and in vitro transcribed into labeled MT cRNAs with [α-32P]UTP, T3 RNA polymerase (Promega, Madison, Wis.), and the Maxiscript In Vitro Transcription Kit (Ambion, Inc, Austin, Tex.). Ribozymes were generated as unlabeled molecules from pRz1-2 and pRz4-9 using either the T3 or T7 promoter of the pClneo vectors, and unlabeled nucleoside triphosphates.
(§2) To test ribozyme activity, radiolabeled rat metallothionein cRNAs were synthesized by in vitro transcription from linearized plasmids and incubated with an excess of unlabeled ribozymes at 37° C. for 16 hours. The enzymatic activity was terminated with an equal volume of stop buffer. After denaturing at 95° C. for 2 minutes, the cleavage products were separated in a 6% polyacrylamide/8M urea gel, dried and exposed to X-ray film to obtain autoradiograms. The uncut rat MT-I (poly A) and MT-II (poly A) molecules were 435 nucleotides and 350 nucleotides, respectively. Rz1-2-mediated cleavage fragments of rat MT-I(poly A) were 360 nucleotides and 115 nucleotides in length. The cleavage fragments produced by Rz4-9 activity on MT-II(polyA) were 260 nucleotides and 90 nucleotides in length.
(§3) Initial experiments were designed to determine effective and linear catalytic temperature ranges for Rz1-2 and Rz4-9. A ribozyme and a labeled substrate were mixed in a 1:1 molar ratio in a 10 μL reaction mixture composed of 40 mM Tris-HCl (pH 7.5) and 20 mM MgCl2 (previously determined to be optimal for cleavage activity). The reaction mixture was denatured for 2 minutes at 95° C. and then snapcooled on ice for 5 minutes. Catalytic reactions were conducted at 25° C., 37° C., and 50° C. for 1, 3, or 16 hours. […] An excess of unlabeled anti-MT Rzs (Rz1-2 and Rz4-9) and their corresponding mutants (Rz2-6 and Rz3-3) were mixed with labeled rat or mouse MT-I or MT-II cRNA and incubated at 37° C. for 16 hours. At the end of these experiments, all catalytic reactions were terminated with an equal volume of stop buffer (10 mM EDTA, 90% formamide, 0.1% bromophenol blue, and 0.1% xylene cyanol). After denaturing at 95° C. for 2 minutes, the cleavage products were separated in a 6% polyacrylamide/8M urea gel, dried, and exposed to X-ray film to obtain autoradiograms. The sizes of the uncut rat MT-I (poly A) and MT-II (poly A) molecules were 435 nucleotides and 350 nucleotides, respectively. Rz1-2-mediated cleavage fragments of rat MT-I(poly A) were of 360 nucleotides and 115 nucleotides in length and those produced by Rz4-9 activity on MT-II(polyA) were 260 nucleotides and 90 nucleotides. Incubation with the mutant Rzs, Rz2-6 or Rz3-3, produced no products.
(§4) Hammerhead ribozymes were tested for specific endonuclease activity under cell-free conditions. In vitro transcription from pBSMT-I and pBSMT-II using 2.5 μg HindIII linearized plasmid and T3 RNA polymerase yielded 5 μg of rat MT-I and MT-II cRNA. In parallel, mouse MT-I and MT-II cRNA were generated from plasmids containing mouse MT sequences (pSP-MT-I). These molecules containing the entire metallothionein coding region and a poly (A) tail 435 nucleotides (rat MT-I cRNA), 350 nucleotides (rat MT-II cRNA), 380 nucleotides ([…]) and 460 nucleotides ([…]) in length. They were used as substrate for the ribozyme reactions. […] Similar sequence specificity data were obtained for mouse metallothionein cRNAs. All cleavage products were of the predicted sizes.

rat MT-II cRNA = assay: cell-free ribozyme cleavage of labeled rat MT-II cRNA; assay type: biochemical; details: for cleavage activity on rat MT-II cRNA: cell-free, excess unlabeled ribozyme, 37° C., 16 hours
Source text: as §1, §2, §3, §4

[1] = cell-free cleavage, 1:1 molar ratio

Substance | optimal Mg^2+ for ribozyme activity (rat MT-I cRNA; cell-free cleavage) [mM] | period over which ribozyme remained active (rat MT-I cRNA; cell-free cleavage) [h] | temperature at which ribozyme is most effective (rat MT-I cRNA; cell-free cleavage) [°C] | temperature range over which ribozyme is active (rat MT-I cRNA; [1]) | cleavage activity on rat MT-I cRNA (rat MT-I cRNA) | cleavage activity on rat MT-II cRNA (rat MT-II cRNA) | optimal Mg^2+ for ribozyme activity (rat MT-II cRNA; cell-free cleavage) [mM] | period over which ribozyme remained active (rat MT-II cRNA; cell-free cleavage) [h] | temperature at which ribozyme is most effective (rat MT-II cRNA; cell-free cleavage) [°C] | temperature range over which ribozyme is active (rat MT-II cRNA; [1])
Rz1-2: hammerhead ribozyme, SEQ ID NO:6, designed to cleave mouse and rat MT-I mRNA (GCGCCUUUGCACUGAUGAGUCCGUGAGGACGAAACACAGCCCU; listed as RNA, chemistry not given here) | 20 | 16 | 37 | 25-50 °C | active | no activity |  |  |  | 
Rz4-9: hammerhead ribozyme, SEQ ID NO:7, designed to cleave MT-II mRNA (CCUCUUUGCACUGAUGAGUCCGUGAGGACGAAAUGCAGCCCU; listed as RNA, chemistry not fully specified) |  |  |  |  | did not mediate rat MT-I cRNA cleavage | cut only rat MT-II cRNAs | 20 | 16 | 37 | 25-50 °C

Source: patent publication US20030105043A1, “Apoptosis-inducing ribozymes” (priority 2000, published 2003)
